Test results reported in article PMC7811981 (European Journal of Drug Metabolism and Pharmacokinetics, 2020).
Where two headings read alike, the source gives them in different places.

Columns and labels:
[1] = assay type: in vivo, healthy adults (human); settings: for AUC(0-inf) / Cmax / Tmax / half-life / AUC(0-t): human, plasma; for AUC(0-t): Period 2: omadacycline with verapamil, linear mixed-effect model
P-gp = assay type: in vivo, healthy adults (human); settings: human, not told, po
[2] = Safety and tolerability assessments; assay type: in vivo, healthy adults (human); settings: for Safety and tolerability: healthy adults
P-glycoprotein (P-gp) = settings: cited from earlier work
[3] = phase I studies; cited from earlier work
[4] = period 2, single oral 240 mg verapamil ER; data not shown
[5] = Period 2/Period 1 (with verapamil / alone)

With CN(C)c1cc(CNCC(C)(C)C)c(O)c2c1C[C@H]1C[C@H]3[C@H](N(C)C)C(O)=C(C(N)=O)C(=O)[C@@]3(O)C(O)=C1C2=O [Omadacycline] the “λz terminal phase rate constant, arithmetic mean (arithmetic coefficient of variation)” value ([1]; Period 1: omadacycline alone, 300 mg oral, N = 12) was 0.1 (11.2) l/h, the “AUC0–24, ratio of geometric LS mean” value [1, 5] was 118.5% and the “AUC0–inf, ratio of geometric LS mean” value [1, 5] was 124.6%. For the same compound, the “AUC0–t, ratio of geometric LS mean” value [1, 5] was 118.6%, the “Cmax, ratio of geometric LS mean” value [1, 5] was 113.6% and the “λz terminal phase rate constant, arithmetic mean (arithmetic coefficient of variation)” value ([1]; Period 2: omadacycline with verapamil ER 240 mg, N = 10) was 0.05 (10.7) l/h. For the same compound, the “Increase in systemic exposure to omadacycline (AUC0–24, AUC0–t, AUC0–inf, Cmax)” value ([1]; after single oral 240 mg verapamil ER compared with omadacycline alone) was 14–25%, the “Plasma concentrations measurable up to (last sampling time)” value ([1]; both treatment periods, all instances) was 24 h and the “Time postdose within which Cmax was attained (visual inspection)” value ([1]; both treatment periods, mean plasma concentration-time profiles) was at most 3 h. The AUC(0-inf) ([1]; oral) was 10800 ng·h/mL, the Cmax ([1]; oral) was 607 ng/mL and the AUC(0-inf) ([1]; oral, 240 mg) was 10800 ng·h/mL. It also gave a Cmax ([1]; oral, 240 mg) of 596 ng/mL, a Tmax ([1]; oral, 240 mg) of 2.8 h and a half-life ([1]; oral, 240 mg) of 14 h. For the same compound, the AUC(0-inf) ([1]; oral, 300 mg) was 8690 ng·h/mL, the Cmax ([1]; oral, 300 mg) was 534 ng/mL and the AUC(0-t) ([1]; oral, AUC0–24, geometric LS mean, N = 10) was 7340 ng·h/mL. For the same compound, the AUC(0-t) ([1]; oral, AUC0–t, geometric LS mean, N = 10) was 7340 ng·h/mL, the AUC(0-inf) ([1]; po, 300 mg) was 8690 ng·h/mL and the Cmax ([1]; po, 300 mg) was 534 ng/mL. The Tmax ([1]; po, 300 mg) was 2.8 h, the half-life ([1]; po, 300 mg) was 12.7 h and the “AUC measures (AUC0–24, AUC0–t, AUC0–inf) higher than omadacycline alone” value ([1]; period 2 (after verapamil) vs period 1) was 18–25%. For the same compound, the “Increase in geometric mean of AUC0–inf” value ([1]; verapamil dosing compared with omadacycline alone) was 18–25%, the “Increase in bioavailability by inhibition of P-gp (as much as)” value ([1]; with verapamil, relative increase) was at most 25.0% and the bioavailability (P-gp) was about 43.1%. The “Clinical laboratory test results, vital sign measurements, physical examination findings, 12-lead ECG results” value ([2]; omadacycline alone and with verapamil ER) was “no clinically relevant findings”, the Safety and tolerability ([2]; single oral 300 mg omadacycline plus 240 mg verapamil ER) was “safe and well tolerated” and the Safety and tolerability ([2]; single oral dose 300 mg omadacycline alone) was “safe and well tolerated”. The P-gp interaction (P-glycoprotein (P-gp); in vitro studies) was “substrate, but not as an inhibitor”, the “Propensity to permeate across the gastrointestinal (GI) tract” value (P-glycoprotein (P-gp); in vitro studies) was “low propensity to permeate” and the P-gp interaction (P-glycoprotein (P-gp); in vitro transporter studies in CaCo cells) was “substrate of P-gp (but not an inhibitor or inducer)”. The “Exposure of 300 mg oral dose versus 100 mg IV dose” value [3] was “comparable exposure”.
In the case of COc1ccc(CCN(C)CCCC(C#N)(c2ccc(OC)c(OC)c2)C(C)C)cc1OC (centres unmarked) [verapamil], the “Plasma concentrations measurable from 2 h after administration up to (last sampling time)” value [4] is reported as 24 h.
